Experimental data published in ChEMBL document CHEMBL1152121, “Improvement of water solubility of non-competitive AMPA receptor antagonists by complexation with beta-cyclodextrin” (Bioorg Med Chem, 2008).
In brackets after ≈: the same amount, converted by molar mass.

Experiments:
[1] = Aqueous solubility of the compound; type: physicochemical; conditions: water
[2] = Binding affinity to beta-cyclodextrin in aqueous solution after 72 hrs by phase-solubility measurements; type: ADME; conditions: buffer

| SMILES | solubility [1] [mM] | K [2] [M⁻¹] |
| --- | --- | --- |
| COc1cc2c(cc1OC)[C@@H](c1ccc(Cl)cc1)N(C(C)=O)CC2 | 5 (≈ 1730 µg/mL) | 15889 |
| COc1cc2c(cc1OC)C(c1ccc(Cl)cc1)N(C(C)=O)CC2 (racemic) | 3 (≈ 1040 µg/mL) | 1079 |
